From article PMC2784108 (Bioorganic & medicinal chemistry, 2009)

Tests used:
[1] = biological target: HDM2(11–119) (Homo sapiens, UniProt Q00987); assay: Fluorescence anisotropy competition, HDM2 binding to fluorescein-labeled p53
[2] = biological target: T1, GST-HDMX(1–188) (Homo sapiens, UniProt O15151); assay: Fluorescence anisotropy competition, HDMX binding to fluorescein-labeled p53
T1 sequence (O15151 1-188): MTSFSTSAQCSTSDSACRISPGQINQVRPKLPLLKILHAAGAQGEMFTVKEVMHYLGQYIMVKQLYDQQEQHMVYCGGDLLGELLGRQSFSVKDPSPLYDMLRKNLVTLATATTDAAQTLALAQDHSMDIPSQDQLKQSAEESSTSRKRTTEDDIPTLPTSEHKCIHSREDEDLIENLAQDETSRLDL

[3] = compared with derivative with hydrogen at position Y (NAPA 5)
[4] = bromine at position Y replaced with methyl, compared with NAPA 9

Row | Structure (SMILES) | inhibition of HDM2-p53 binding (in words) [1] | inhibition of HDMX-p53 binding (in words) [2] | also measured
1 | CC(C)CCCNC(=O)N(CC(CCC(=O)O)NC(N)=O)C(CCCCN)CN(C(=O)NCCc1ccc(Br)cc1)C(CCC(=O)O)CN(CCC(N)=O)C(=O)NCCCc1ccc(Br)cc1 (stereo not drawn) [NAPA 9] |  |  | inhibition of HDM2 binding with p53 relative to NAPA 5 [1, 3]: two to four times better; inhibition of HDMX binding with p53 relative to NAPA 5 [2, 3]: two to four times better
2 | Cc1ccc(CCCNC(=O)N(CCC(N)=O)CC(CCC(=O)O)N(CC(CCCCN)N(CC(CCC(=O)O)NC(N)=O)C(=O)NCCCC(C)C)C(=O)NCCc2ccc(Br)cc2)cc1 (stereo not drawn) [NAPA 10] |  |  | activity against HDM2 relative to NAPA 9 [1, 4]: decreased by three times; inhibitory activity towards HDMX relative to NAPA 9 [2, 4]: did not significantly affect
3 | CC(C)CCCCNC(=O)N(CC(CCC(=O)O)NC(N)=O)C(CCCCN)CN(C(=O)NCCc1ccc(Br)cc1)C(CCC(=O)O)CN(CCC(N)=O)C(=O)NCCCc1ccc(Br)cc1 (stereo not drawn) [NAPA 13] | modest inhibition | modest inhibition | 
4 | CC(C)CCC(=O)N[C@@H](CCCC(=O)O)CN(C(=O)NCCCC1CCCCC1)[C@@H](CCCCN)CN(C(=O)NCCc1ccc(Br)cc1)[C@@H](CCCC(=O)O)CN(CCC(N)=O)C(=O)NCCCc1ccc(F)cc1 [NAPA 34] | negative impact on inhibitory activity | negative impact on inhibitory activity | 
5 | NCCCC[C@@H](CN(C(=O)NCCCC1CCCCC1)[C@@H](CCCCN)CN(C(=O)NCCc1ccc(Br)cc1)[C@@H](CCCCN)CN(CCC(N)=O)C(=O)NCCCc1ccc(F)cc1)NC(N)=O [NAPA 35] | eliminated all inhibitory activity | eliminated all inhibitory activity | 
6 | CC(C)CCC(=O)NC(CCC(=O)O)CN(CCC1CCC2(CCCCC2)CC1)C(CCCCN)CN(CCCCc1ccc(Br)cc1)[C@@H](CCC(=O)O)CN(CCCCCc1ccc(F)cc1)CCC(N)=O (stereo partly drawn) [NAPA 36] | no inhibitory activity | no inhibitory activity | 
